Measurements published in PubChem BioAssay AID256 (DTP/NCI, 2004).
Where “and” joins values, the source holds several entries; their conditions need not be identical. Equal entries are not always repeated. Inconclusive results and toxic doses are left out.

Test system: CD2F1 mice, L1210 leukemia ip, survival T/C
Assay: NCI In Vivo Anticancer Drug Screen. Data for tumor model L1210 Leukemia (intraperitoneal) in CD2F1 (CDF1) mice
Details: higher = longer survival
How it was run: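 Ratio T/C, where T is the treated-group value and C the vehicle-dosed control value, from mice implanted with a transplantable tumor.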

[1] = endpoint: mean survival time, dose: 100.0 mg/kg/injection, schedule: Q04DX003 (ip), vehicle: saline with Tween-80
[2] = endpoint: mean survival time, dose: 200.0 mg/kg/injection, schedule: Q04DX003 (ip), vehicle: saline with Tween-80
[3] = endpoint: mean survival time, dose: 400.0 mg/kg/injection, schedule: Q04DX003 (ip), vehicle: saline with Tween-80
[4] = endpoint: mean survival time, dose: 100.0 mg/kg/injection, schedule: Q01DX009 (ip), vehicle: saline with Tween-80

With `CC(C)=CC1CC(C)C2(CCC3(C)CC4C(C(=O)CC4(C)O)/C(C=O)=C\CC32)O1` (configuration not stated) the T/C (endpoint: mean survival time, dose: 2.5 mg/kg/injection, schedule: Q01DX009 (ip), vehicle: saline with Tween-80) was 97 % of control, the T/C (endpoint: mean survival time, dose: 5.0 mg/kg/injection, schedule: Q01DX009 (ip), vehicle: saline with Tween-80) was 94 % of control and the T/C (endpoint: mean survival time, dose: 10.0 mg/kg/injection, schedule: Q01DX009 (ip), vehicle: saline with Tween-80) was 97 % of control.
In the case of `C/C(=N\N=C(/[Se])N1CC2CCC(CC2)C1)c1ccccn1`, the T/C (endpoint: median survival time, dose: 0.75 mg/kg/injection, schedule: Q01DX009 (ip), vehicle: Klucel (hydroxypropylcellulose) (HPC)) is reported as 101 % of control, the T/C (endpoint: median survival time, dose: 1.5 mg/kg/injection, schedule: Q01DX009 (ip), vehicle: Klucel (hydroxypropylcellulose) (HPC)) is reported as 103 % of control and the T/C (endpoint: median survival time, dose: 1.56 mg/kg/injection, schedule: Q01DX009 (ip), vehicle: Klucel (hydroxypropylcellulose) (HPC)) is reported as 93 % of control and 101 % of control. For the same molecule, the T/C (endpoint: median survival time, dose: 3.0 mg/kg/injection, schedule: Q01DX009 (ip), vehicle: Klucel (hydroxypropylcellulose) (HPC)) was 102 % of control, the T/C (endpoint: median survival time, dose: 3.12 mg/kg/injection, schedule: Q01DX009 (ip), vehicle: Klucel (hydroxypropylcellulose) (HPC)) was 97 % of control and 110 % of control and the T/C (endpoint: median survival time, dose: 6.0 mg/kg/injection, schedule: Q01DX009 (ip), vehicle: Klucel (hydroxypropylcellulose) (HPC)) was 104 % of control. For the same molecule, the T/C (endpoint: median survival time, dose: 6.25 mg/kg/injection, schedule: Q01DX009 (ip), vehicle: Klucel (hydroxypropylcellulose) (HPC)) was 86 % of control, the T/C (endpoint: median survival time, dose: 12.0 mg/kg/injection, schedule: Q01DX009 (ip), vehicle: Klucel (hydroxypropylcellulose) (HPC)) was 102 % of control and the T/C (endpoint: median survival time, dose: 12.5 mg/kg/injection, schedule: Q01DX009 (ip), vehicle: Klucel (hydroxypropylcellulose) (HPC)) was 109 % of control. The T/C (endpoint: median survival time, dose: 25.0 mg/kg/injection, schedule: Q01DX009 (ip), vehicle: Klucel (hydroxypropylcellulose) (HPC)) was 89 % of control.
`CN(C)C=Nc1ccc([N+](=O)[O-])cc1` was tested, and the T/C [1] was 101 % of control, the T/C [2] was 101 % of control and the T/C [3] was 92 % of control.
With `CN(C)CCNc1cccc2c1C(=O)c1cccc(NCCN(C)C)c1C2=O` the T/C (endpoint: mean survival time, dose: 1.88 mg/kg/injection, schedule: Q01DX009 (ip), vehicle: saline) was 94 % of control, the T/C (endpoint: mean survival time, dose: 3.75 mg/kg/injection, schedule: Q01DX009 (ip), vehicle: saline) was 96 % of control and the T/C (endpoint: mean survival time, dose: 7.5 mg/kg/injection, schedule: Q01DX009 (ip), vehicle: saline) was 104 % of control. The T/C (endpoint: mean survival time, dose: 15.0 mg/kg/injection, schedule: Q01DX009 (ip), vehicle: saline) was 104 % of control and the T/C (endpoint: mean survival time, dose: 30.0 mg/kg/injection, schedule: Q01DX009 (ip), vehicle: saline) was 104 % of control.
For `Nc1c(Cl)cccc1C(=O)c1ccccc1C(=O)O`, the T/C [4] was 97 % of control, the T/C [1] was 101 % of control and the T/C (endpoint: mean survival time, dose: 200.0 mg/kg/injection, schedule: Q01DX009 (ip), vehicle: saline with Tween-80) was 95 % of control. For the same molecule, the T/C [2] was 101 % of control, the T/C (endpoint: mean survival time, dose: 400.0 mg/kg/injection, schedule: Q01DX009 (ip), vehicle: saline with Tween-80) was 101 % of control and the T/C [3] was 103 % of control.
For `COc1cn(C2OC(CO)C(O)C2O)c(=O)nc1N` (configuration not stated), the T/C (endpoint: median survival time, dose: 25.0 mg/kg/injection, schedule: Q01DX005 (ip), vehicle: saline) was 114 % of control, the T/C (endpoint: median survival time, dose: 50.0 mg/kg/injection, schedule: Q01DX005 (ip), vehicle: saline) was 111 % of control and the T/C (endpoint: median survival time, dose: 100.0 mg/kg/injection, schedule: Q01DX005 (ip), vehicle: saline) was 114 % of control.
In the case of `CC(=O)OCC1OC(n2cnc(N)nc2=O)C(OC(C)=O)C1OC(C)=O` (configuration not stated), the T/C (endpoint: mean survival time, dose: 1.56 mg/kg/injection, schedule: Q01DX009 (ip), vehicle: saline) is reported as 121 % of control, the T/C (endpoint: mean survival time, dose: 3.12 mg/kg/injection, schedule: Q01DX009 (ip), vehicle: saline) is reported as 158 % of control and the T/C (endpoint: mean survival time, dose: 6.25 mg/kg/injection, schedule: Q01DX009 (ip), vehicle: saline) is reported as 161 % of control. The T/C (endpoint: mean survival time, dose: 12.5 mg/kg/injection, schedule: Q01DX009 (ip), vehicle: saline) was 169 % of control and the T/C (endpoint: mean survival time, dose: 25.0 mg/kg/injection, schedule: Q01DX009 (ip), vehicle: saline) was 110 % of control and 111 % of control.
`CCOc1ccc2nc([NH-])sc2c1.CCOc1ccc2nc([NH-])sc2c1.[Cl][Pt+2][Cl]` was tested, and the T/C (endpoint: mean survival time, dose: 3.13 mg/kg/injection, schedule: Q04DX003 (ip), vehicle: distilled water + Tween-80) was 96 % of control, the T/C (endpoint: mean survival time, dose: 6.25 mg/kg/injection, schedule: Q04DX003 (ip), vehicle: distilled water + Tween-80) was 96 % of control and the T/C (endpoint: mean survival time, dose: 12.5 mg/kg/injection, schedule: Q04DX003 (ip), vehicle: distilled water + Tween-80) was 96 % of control. For the same molecule, the T/C (endpoint: mean survival time, dose: 25.0 mg/kg/injection, schedule: Q04DX003 (ip), vehicle: distilled water + Tween-80) was 95 % of control, the T/C (endpoint: mean survival time, dose: 50.0 mg/kg/injection, schedule: Q04DX003 (ip), vehicle: distilled water + Tween-80) was 98 % of control and the T/C (endpoint: mean survival time, dose: 100.0 mg/kg/injection, schedule: Q04DX003 (ip), vehicle: distilled water + Tween-80) was 101 % of control. For the same molecule, the T/C (endpoint: mean survival time, dose: 200.0 mg/kg/injection, schedule: Q04DX003 (ip), vehicle: distilled water + Tween-80) was 96 % of control.
For `C=C(C)CNC1=C(C)C(=O)C2=C(C1=O)[C@H](COC(N)=O)[C@]1(OC)[C@@H]3N[C@@H]3CN21`, the T/C (endpoint: mean survival time, dose: 1.5 mg/kg/injection, schedule: Q01DX001 (ip), vehicle: distilled water + Tween-80) was 119 % of control, the T/C (endpoint: mean survival time, dose: 3.0 mg/kg/injection, schedule: Q01DX001 (ip), vehicle: distilled water + Tween-80) was 117 % of control and the T/C (endpoint: mean survival time, dose: 12.0 mg/kg/injection, schedule: Q01DX001 (ip), vehicle: distilled water + Tween-80) was 101 % of control.
With `O=[N+]([O-])c1cc(C(F)(F)F)ccc1F` the T/C (endpoint: mean survival time, dose: 25.0 mg/kg/injection, schedule: Q04DX003 (ip), vehicle: saline with Tween-80) was 110 % of control, the T/C (endpoint: mean survival time, dose: 50.0 mg/kg/injection, schedule: Q04DX003 (ip), vehicle: saline with Tween-80) was 98 % of control and the T/C [1] was 105 % of control.
For `CCCCCCCCCCCCN1C(C)=CS/C1=C\C=C\c1scc(C)[n+]1CCCCCCCCCCCC`, the T/C (endpoint: mean survival time, dose: 0.78 mg/kg/injection, schedule: Q01DX009 (ip), vehicle: saline with Tween-80) was 123 % of control.
In the case of `CCN(CC)c1ccc(N)cc1`, the T/C (endpoint: mean survival time, dose: 5.0 mg/kg/injection, schedule: Q01DX009 (ip), vehicle: saline) is reported as 96 % of control, the T/C (endpoint: mean survival time, dose: 5.0 mg/kg/injection, schedule: Q04DX003 (ip), vehicle: saline) is reported as 96 % of control and the T/C (endpoint: mean survival time, dose: 10.0 mg/kg/injection, schedule: Q01DX009 (ip), vehicle: saline) is reported as 96 % of control. The T/C (endpoint: mean survival time, dose: 10.0 mg/kg/injection, schedule: Q04DX003 (ip), vehicle: saline) was 97 % of control, the T/C (endpoint: mean survival time, dose: 20.0 mg/kg/injection, schedule: Q01DX009 (ip), vehicle: saline) was 100 % of control and the T/C (endpoint: mean survival time, dose: 20.0 mg/kg/injection, schedule: Q04DX003 (ip), vehicle: saline) was 94 % of control.
For `COc1cc(/C=C2\SC(=O)NC2=O)ccc1O`, the T/C [4] was 105 % of control.
With `O=S(=O)(Cl)c1cccc2c(S(=O)(=O)Cl)cccc12` the T/C (endpoint: mean survival time, dose: 20.0 mg/kg/injection, schedule: Q04DX003 (ip), vehicle: Klucel (hydroxypropylcellulose) (HPC)) was 102 % of control, the T/C (endpoint: mean survival time, dose: 40.0 mg/kg/injection, schedule: Q04DX003 (ip), vehicle: Klucel (hydroxypropylcellulose) (HPC)) was 104 % of control and the T/C (endpoint: mean survival time, dose: 80.0 mg/kg/injection, schedule: Q04DX003 (ip), vehicle: Klucel (hydroxypropylcellulose) (HPC)) was 95 % of control. For the same molecule, the T/C (endpoint: mean survival time, dose: 200.0 mg/kg/injection, schedule: Q04DX003 (ip), vehicle: Klucel (hydroxypropylcellulose) (HPC)) was 109 % of control and the T/C (endpoint: mean survival time, dose: 400.0 mg/kg/injection, schedule: Q04DX003 (ip), vehicle: Klucel (hydroxypropylcellulose) (HPC)) was 122 % of control.
For `CC1CC(C)SC(C)S1` (configuration not stated), the T/C (endpoint: mean survival time, dose: 50.0 mg/kg/injection, schedule: Q04DX002 (ip), vehicle: saline with Tween-80) was 102 % of control, the T/C (endpoint: mean survival time, dose: 100.0 mg/kg/injection, schedule: Q04DX002 (ip), vehicle: saline with Tween-80) was 105 % of control and the T/C (endpoint: mean survival time, dose: 200.0 mg/kg/injection, schedule: Q04DX002 (ip), vehicle: saline with Tween-80) was 97 % of control.
`O=C1C=CC(O)CCC1` (configuration not stated) (tested in a mixture with another compound) was tested, and the T/C [1] was 101 % of control, the T/C [2] was 101 % of control and the T/C [3] was 97 % of control.
With `CCOC(=O)c1ccc(N/C(C)=C/C(=O)OC)cc1` the T/C (endpoint: mean survival time, dose: 75.0 mg/kg/injection, schedule: Q04DX003 (ip), vehicle: saline) was 94 % of control and the T/C (endpoint: mean survival time, dose: 150.0 mg/kg/injection, schedule: Q04DX003 (ip), vehicle: saline) was 91 % of control.
In the case of `CN(N=O)C(=O)Nc1ccc(C2CC(=O)N(C)C2=O)cc1` (configuration not stated), the T/C (endpoint: mean survival time, dose: 12.5 mg/kg/injection, schedule: Q01DX001 (ip), vehicle: distilled water + Tween-80) is reported as 113 % of control, the T/C (endpoint: mean survival time, dose: 25.0 mg/kg/injection, schedule: Q01DX001 (ip), vehicle: distilled water + Tween-80) is reported as 101 % of control and 106 % of control and the T/C (endpoint: mean survival time, dose: 50.0 mg/kg/injection, schedule: Q01DX001 (ip), vehicle: distilled water + Tween-80) is reported as 108 % of control and 112 % of control. The T/C (endpoint: mean survival time, dose: 100.0 mg/kg/injection, schedule: Q01DX001 (ip), vehicle: distilled water + Tween-80) was 113 % of control and the T/C (endpoint: mean survival time, dose: 200.0 mg/kg/injection, schedule: Q01DX001 (ip), vehicle: distilled water + Tween-80) was 112 % of control.
`O=C(c1ccccc1)N(C(=O)c1ccccc1)C1CCCCC1` was tested, and the T/C [1] was 100 % of control, the T/C [2] was 94 % of control and the T/C [3] was 93 % of control.
